Series [1] concerns the target T1, α-amylase derived from human pancreatic juice (HPA) (Homo sapiens, UniProt P04746).
T1 construct: purchased International Reagents Corp. Japan Calibzyme AMY
T1 sequence (P04746 16-511): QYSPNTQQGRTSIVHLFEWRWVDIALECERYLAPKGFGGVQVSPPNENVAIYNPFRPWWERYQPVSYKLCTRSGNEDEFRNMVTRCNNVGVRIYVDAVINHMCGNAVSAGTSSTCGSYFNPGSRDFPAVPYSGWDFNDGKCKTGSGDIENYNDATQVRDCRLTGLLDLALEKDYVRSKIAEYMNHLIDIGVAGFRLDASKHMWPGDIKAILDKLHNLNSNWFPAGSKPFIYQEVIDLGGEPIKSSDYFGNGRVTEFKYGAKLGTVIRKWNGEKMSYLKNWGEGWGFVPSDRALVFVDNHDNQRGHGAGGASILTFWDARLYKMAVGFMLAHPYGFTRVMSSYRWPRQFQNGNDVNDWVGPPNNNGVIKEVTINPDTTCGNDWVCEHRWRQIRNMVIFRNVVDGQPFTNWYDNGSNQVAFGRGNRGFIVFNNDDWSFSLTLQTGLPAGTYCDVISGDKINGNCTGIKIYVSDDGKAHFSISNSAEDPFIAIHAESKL
Nature of the series: In vitro amylase activity inhibition test, HPA (blue starch, Neo Amylase Test). The note with it: 37° C., 30 minutes, blue starch substrate. It counts as biochemical. How it is done: (§1) (1) Preparation of Human α-amylase Solution
(§2) Commercial HPA and HSA were dissolved in purified water to a concentration of 350 IU/1 to prepare an α-amylase solution. As commercial HPA and HSA, “Calibzyme AMY” (available from International Reagents Corp. Japan) was used. The α-amylase activity was determined according to the calibration curve of a commercial α-amylase determining reagent “Neo Amylase Test ┌FDAIICHI┘” (available from Daiichi Pure Chemicals Co., Ltd., Japan).
(§3) (2) Preparation of Inhibitor Solution
(§4) DOG2Az obtained in Example 1, GDOG2Az obtained in Example 2 and comparative G2Az (6^3-position non-modified maltoligosaccharide derivative disclosed in JP-A-9-278789) represented by the following formula
(§5) (3) were diluted with distilled water so that the final concentration would become 5 to 0.0001 mM. [drawing 4]
(§6) (3) Determination of Human α-amylase Inhibitory Activity (IC50) of Inhibitor Solution
(§7) 3.0 ml of distilled water, 1.0 ml of the inhibitor solution, Neo Amylase Test ┌DAIICHI┘ (produced by Daiichi Pure Chemicals Co., Ltd., Japan) and one tablet of blue starch were added to 100 μl of HPA or HSA solution, and the mixture was stirred by a mixer for about 10 seconds and then heated at 37° C. for 30 minutes. Thereafter, 1.0 ml of 0.5 N sodium hydroxide solution was added and the mixture was further stirred. Then the reaction was stopped, the solution was centrifuged (1,500 G, 5 minutes) and absorbance of the supernatant at 620 nm was measured. In blank, distilled water was used in place of the inhibitor solution. “IC50” indicates the final concentration (mM) of the inhibitor material required for inhibiting the activity of HPA or HSA solution by 50%.

For series [2], the target named is T2, α-amylase derived from human salivary gland (HSA) (Homo sapiens, UniProt P0DUB6).
T2 construct: purchased International Reagents Corp. Japan Calibzyme AMY
T2 sequence (P0DUB6 16-511): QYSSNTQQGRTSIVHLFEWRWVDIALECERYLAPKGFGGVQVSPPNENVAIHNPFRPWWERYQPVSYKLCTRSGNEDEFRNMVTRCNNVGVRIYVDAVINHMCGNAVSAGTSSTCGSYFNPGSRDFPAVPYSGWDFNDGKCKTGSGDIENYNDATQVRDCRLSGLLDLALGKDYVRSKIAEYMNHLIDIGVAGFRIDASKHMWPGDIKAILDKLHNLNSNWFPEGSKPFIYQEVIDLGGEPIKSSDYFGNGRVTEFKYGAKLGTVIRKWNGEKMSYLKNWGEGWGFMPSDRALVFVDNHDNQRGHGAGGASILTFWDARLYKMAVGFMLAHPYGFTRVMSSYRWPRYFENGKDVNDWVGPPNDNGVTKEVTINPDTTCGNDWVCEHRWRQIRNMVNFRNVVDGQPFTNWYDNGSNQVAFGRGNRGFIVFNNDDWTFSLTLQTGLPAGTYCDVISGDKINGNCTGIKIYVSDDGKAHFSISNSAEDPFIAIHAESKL
Nature of the series: In vitro amylase activity inhibition test, HSA (blue starch, Neo Amylase Test). It counts as biochemical. The note with it: 37° C., 30 minutes, blue starch substrate. On the procedure: as §1, §2, §3, §4, §5, §6, §7

Series [3] relates to blood glucose level. The experiment in a line: Anti-diabetic action: inhibition of rise of blood glucose level after corn starch intake in mice. Type of series: in vivo, mice (Crj:CD-1(ICR)). The following applies: for Significant test (t-test): P value, inhibition of rise of blood glucose level; for Blood glucose level before intake: mice fasted 20 hours, 0 min; for Blood glucose level before intake / Blood glucose level 30 minute after intake: n=5, in mg/dL (unit assumed); for Blood glucose level 30 minute after intake: 30 minutes. On the procedure: Commercially available healthy mice (Crj:CD-1(ICR) with body weight of 20.5 to 26.0 g, bred by Japan Charles Liver Co., Ltd.), were used for the test.
The mice were divided into three groups (n=5). After left fasting for 20 hours, the mice of the compound-administered groups were forced to take orally DOG2Az, G2Az and corn starch as saccharide which was made into a liquid state with sterilized distilled water.
Blood was collected from the orbital vein of each mouse before and after the intake of the materials (0 and after 30 minutes), and the amount of glucose in blood was measured to determine the inhibitory effect against the rise of blood glucose level, i.e. anti-diabetic action of the compounds, after intake of corn starch. The inhibitory effect against the rise of blood glucose level was judged by t-test. Glucose concentration in blood was measured by a blood glucose level analyzer “ANTSENSE” (mfd. by Bayer Sankyo Ltd.).

Data on five compounds can be found in patent US6596696B1, “Malto-oligosaccharide derivatives and uses thereof” (Kikkoman Corporation, priority 1999, dated 2003).

Molecules are shown by their SMILES.

Turning to `C[C@H]1O[C@H](O[C@H]2[C@H](O)[C@@H](O)[C@@H](O[C@H]3[C@H](O)[C@@H](O)CNC[C@H]3O)O[C@@H]2CO)[C@H](O)[C@@H](O)[C@@H]1O` (hydrate or solvate) [DOG2Az, (3R, 4R, 5R, 6S)-Hexahydro-3,5,6-trihydroxy-1H-azepine-4-yl O-(6-deoxy-α-D-glucopyranosyl)-(1→4)-α-D-glucopyranoside], the melting point was 132 to 134 °C (dec.).
The same measure, in the same setting: in the case of `C[C@H]1O[C@H](O[C@H]2[C@H](O)[C@@H](O)[C@@H](O[C@H]3[C@H](O)[C@@H](O)CNC[C@H]3O)O[C@@H]2CO)[C@H](O)[C@@H](O)[C@@H]1O[C@H]1O[C@H](CO)[C@@H](O)[C@H](O)[C@H]1O` (hydrate or solvate) [GDOG2Az, (3R, 4R, 5R, 6S)-Hexahydro-3,5,6-trihydroxy-1H-azepine-4-yl O-(α-D-glucopyranosyl)-(1→4)-O-(6-deoxy-α-D-glucopyranosyl)-(1→4)-α-D-glucopyranoside] it was 144 to 146 °C (dec.).
In the case of `C[C@H]1O[C@H](O[C@H]2[C@H](O)[C@@H](O)[C@@H](O[C@H]3[C@H](O)[C@@H](O)CNC[C@H]3O)O[C@@H]2CO)[C@H](O)[C@@H](O)[C@@H]1O` [DOG2Az, (3R, 4R, 5R, 6S)-Hexahydro-3,5,6-trihydroxy-1H-azepine-4-yl O-(6-deoxy-α-D-glucopyranosyl)-(1→4)-α-D-glucopyranoside], the half-inhibitory concentration (IC50) in series [1] turned out to be 0.024 mM; in series [2], 0.037 mM. Further, in series [3] (5 mg/kg oral + corn starch 2,000 mg/kg), the “Significant test (t-test)” value is reported as “P < 0.1%”. Also, in series [3] (group given 5 mg/kg oral + corn starch 2,000 mg/kg), the “Blood glucose level before intake” value was determined as 101 ± 18. Also, the “Blood glucose level 30 minute after intake” value in series [3] (mice, 5 mg/kg oral + corn starch 2,000 mg/kg) came out at 136 ± 23. Further, the “rise of blood glucose level in comparison with the control group” value in series [3] (mice, 5 mg/kg oral + corn starch 2,000 mg/kg, result in words) was “suppressed significantly”.
Regarding `OCC1OC(OC2C(CO)OC(OC3C(O)CNCC(O)C3O)C(O)C2O)C(O)C(O)C1O` (stereo not drawn) [Example G2Az, reference compound], the IC50 in series [1] amounted to 0.043 mM; in series [2] it was 0.082 mM. Further, in series [3] (60 mg/kg oral + corn starch 2,000 mg/kg), the “Significant test (t-test)” value was “P < 1%”. For the same compound, the “Blood glucose level before intake” value in series [3] (group given 60 mg/kg oral + corn starch 2,000 mg/kg) came out at 102 ± 21. Further, in series [3] (mice, 60 mg/kg oral + corn starch 2,000 mg/kg), the “Blood glucose level 30 minute after intake” value stood at 169 ± 8.
Take `C[C@H]1O[C@H](O[C@H]2[C@H](O)[C@@H](O)[C@@H](O[C@H]3[C@H](O)[C@@H](O)CNC[C@H]3O)O[C@@H]2CO)[C@H](O)[C@@H](O)[C@@H]1O[C@H]1O[C@H](CO)[C@@H](O)[C@H](O)[C@H]1O` [GDOG2Az, (3R, 4R, 5R, 6S)-Hexahydro-3,5,6-trihydroxy-1H-azepine-4-yl O-(α-D-glucopyranosyl)-(1→4)-O-(6-deoxy-α-D-glucopyranosyl)-(1→4)-α-D-glucopyranoside]: the IC50 in series [1] is 0.026 mM; in series [2], 0.028 mM.

As usually defined, the melting point is the temperature of the solid-liquid transition. In general, IC50 refers to the midpoint of a concentration-inhibition curve. High values mean weaker potency, low ones greater potency.
